In series [1] the test system is SPC-A1. The series is described as follows: Growth inhibition, modified MTT assay, SPC-A1. Format: cell-based. Particulars: SPCA1, mean of 3 independent tests. The method, then:
(§1) The growth inhibition was evaluated by the modified MTT assay. Briefly, the cells were seeded at 1×10^4 cells/well in 96-well plates (Falcon, Calif., USA), and incubated for 24 h in […] culture media with 10% FCS. The media were then replaced by serum-free medium. After 24 h, the media were placed in triplicate with grade concentrations of compounds. As controls, the cells were cultivated in DMEM/F12 only. The cells were then treated by MTT (Sigma, USA) assay, […] (5 g/L) for 4 h. After the removal of the supernatant, the purple-blue sediment was dissolved in 100 μL/well DMSO, and the optical densities were read on the multi-well scanning spectrophotometer (Labsystems Dragon, Finland) at 492 nm (A492). The growth inhibition rate (GIR) of the treated cells was calculated using Equation: GIR(%)={1−[A490/A490(control)]}×100% The results were also converted to IC50 (the compound concentration required for 50% growth inhibition of tumor cells), which were calculated by using the sigmoidal fitting model by the Origin 7.0 software (OriginLab, Northampton, Mass., USA). The mean IC50 was determined from the results of 3 independent tests.
A general note: Tetrazolium assays rely on reduction of a dye to a coloured formazan, in cell work by metabolically active cells.

In series [2] the test system is MCF-7. The series is described as follows: Growth inhibition, modified MTT assay, MCF-7. Format: cell-based. As to conditions: Homo sapiens, MCF7; MCF-7, MTT, mean of 3 independent tests. As to the method:
as §1

For series [3], the system named is T24. The series is described as follows: Growth inhibition, modified MTT assay, T24. Type of series: cell-based. Particulars: Homo sapiens, T-24, mean of 3 independent tests. As to the method: as §1
Series [4] concerns HepG2. The series is described as follows: Growth inhibition, modified MTT assay, HepG2. As to conditions: Homo sapiens, mean of 3 independent tests. Type of series: cell-based. As to the method: as §1
The target of series [5] is T1, PPAR-γ (Homo sapiens, UniProt P37231).
T1 construct: expressed in transfected cells; host or cells: U2OS cells, transiently transfected with pcDNA3.1 expression vectors (FuGene6)
T1 sequence (P37231 1-505): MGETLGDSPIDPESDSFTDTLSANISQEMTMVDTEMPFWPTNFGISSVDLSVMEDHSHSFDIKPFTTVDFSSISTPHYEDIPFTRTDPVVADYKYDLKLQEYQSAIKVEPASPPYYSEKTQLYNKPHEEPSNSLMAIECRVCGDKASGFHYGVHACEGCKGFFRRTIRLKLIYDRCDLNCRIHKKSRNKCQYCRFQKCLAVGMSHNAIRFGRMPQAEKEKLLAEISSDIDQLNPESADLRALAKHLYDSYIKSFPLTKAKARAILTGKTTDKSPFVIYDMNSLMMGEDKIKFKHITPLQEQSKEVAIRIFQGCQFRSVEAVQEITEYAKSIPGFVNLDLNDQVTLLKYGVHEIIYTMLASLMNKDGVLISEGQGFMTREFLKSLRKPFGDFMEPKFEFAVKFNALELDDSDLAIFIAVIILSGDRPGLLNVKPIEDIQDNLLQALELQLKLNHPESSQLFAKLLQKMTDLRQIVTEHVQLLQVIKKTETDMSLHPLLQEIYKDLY
T1 sequence (P19793 1-462 partner): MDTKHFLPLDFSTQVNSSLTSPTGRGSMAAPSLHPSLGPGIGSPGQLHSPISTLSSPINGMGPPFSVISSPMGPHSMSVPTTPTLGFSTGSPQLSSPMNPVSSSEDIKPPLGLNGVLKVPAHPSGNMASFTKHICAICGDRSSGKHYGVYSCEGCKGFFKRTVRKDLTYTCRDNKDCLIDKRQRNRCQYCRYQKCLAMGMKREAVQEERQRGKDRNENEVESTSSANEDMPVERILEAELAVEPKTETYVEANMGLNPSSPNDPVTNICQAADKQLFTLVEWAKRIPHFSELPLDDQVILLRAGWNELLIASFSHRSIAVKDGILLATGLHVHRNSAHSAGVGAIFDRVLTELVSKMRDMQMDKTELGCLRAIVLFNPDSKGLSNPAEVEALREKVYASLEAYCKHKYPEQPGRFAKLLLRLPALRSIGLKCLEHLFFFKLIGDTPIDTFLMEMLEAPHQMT
The series is described as follows: Transient transfection and transcription assay (luciferase reporter, U2OS cells). As to conditions: 24 h treatment. Type of series: cell-based. The method, then: cDNAs for Human RXR, PPAR were obtained by RTPCR from the human liver or adipose tissues. Amplified cDNAs were cloned into pcDNA3.1 expression vector and the inserts were confirmed by sequencing. U2OS cells were cultured in McCoy's 5A with 10% heat-inactivated fetal bovine serum in a humidified 5% CO2 atmosphere at 37° C. Cells were seeded in 96-well plates the day before transfection to give a confluence of 50-80% at transfection. A total of 60 ng of DNA containing 10 ng of hRXR, 10 ng of pCMV Gal, 10 ng of nuclear receptor expression vectors and 30 ng of the corresponding reporters were cotransfected per well using FuGene6 transfection reagent according to the manufacturer's instructions. […] The final concentration of DMSO in culture medium was 0.1%. […] Luciferase activity was monitored using the luciferase assay kit according to the manufacturers instructions. Light emission was read in a Labsystems Ascent Fluoroskan reader. To measure galactosidase activity to normalize the luciferase data, 50 IL of supernatant from each transfection lysate was transferred to a new microplate. Galactosidase assays were performed in the microwell plates using a kit from Promega and read in a microplate reader. Compounds were tested in five concentrations ranging from 0.01 to 10 μM. […] The results were expressed as means (SD).
(A reporter such as luciferase makes a cellular process visible.)

The structures appear in SMILES notation. Bounds are passed on as bounds.

Results on twelve compounds are retold here after patent US8513233B2, “Pyrimidinyl-propionic acid derivatives and their use as PPAR agonists” (Shanghai Institute of Materia Medica, CAS, priority 2007, dated 2013).

Take `CC(Cc1ccc(Oc2cc(N3CCN(Cc4ccc(C(F)(F)F)cc4)CC3)nc(N)n2)cc1)(Oc1ccccc1)C(=O)O` (centres unmarked) [Compound 8, 3-{4-{2-Amino-6-[4-(4-trifluoromethyl-benzyl)-piperazin-1-yl]-pyrimidin-4-yloxy}-phenyl}-2-methyl-2-phenoxy-propionic acid]: the melting point lay within 114 to 115 °C. The IC50 in series [1] came to 42.5 µM. The IC50 in series [2] was determined as 28.5 µM. The compound also registered an IC50 in series [3] of 36.2 µM. The IC50 in series [4] was more than 50 µM.
In turn, `CC(Cc1ccc(Oc2cc(N3CCN(Cc4ccc(F)cc4)CC3)nc(N)n2)cc1)(Oc1ccccc1)C(=O)O` (centres unmarked) [Compound 7, 3-{4-{2-Amino-6-[4-(4-fluoro-benzyl)-piperazin-1-yl]-pyrimidin-4-yloxy}-phenyl}-2-methyl-2-phenoxy-propionic acid] gave a melting point of 107 to 109 °C. In series [1], this compound returned an IC50 of more than 50 µM. The compound further yielded an IC50 in series [2] of more than 50 µM. Further, the IC50 in series [3] is more than 50 µM. The compound also showed an IC50 in series [4] of more than 50 µM.
In turn, `CC(Cc1ccc(Oc2cc(N3CCN(Cc4ccc(Cl)cc4)CC3)nc(N)n2)cc1)(Oc1ccccc1)C(=O)O` (centres unmarked) [Compound 13, 3-{4-{2-Amino-6-[4-(4-chloro-benzyl)-piperazin-1-yl]-pyrimidin-4-yloxy}-phenyl}-2-methyl-2-phenoxy-propionic acid] came in with a melting point of 103 to 105 °C. The same compound registered an IC50 in series [1] of more than 50 µM. In addition, the IC50 in series [2] stood at 48.9 µM. In addition, the IC50 in series [3] was 45.6 µM. The compound also gave an IC50 in series [4] of more than 50 µM.
In turn, `CC(Cc1ccc(Oc2cc(N3CCN(Cc4cccnc4)CC3)nc(N)n2)cc1)(Oc1ccccc1)C(=O)O` (centres unmarked) [Compound 39, 3-{4-[2-Amino-6-(4-pyridin-3-ylmethyl-piperazin-1-yl)-pyrimidin-4-yloxy]-phenyl}-2-methyl-2-ph enoxy-propionic acid] yielded a melting point of 141 to 143 °C. For the same compound, the midpoint of inhibition in series [1], the IC50, lay at 43.5 µM. This compound came in with an IC50 in series [2] of 38.8 µM. The compound also yielded an IC50 in series [3] of more than 50 µM. This compound displayed an IC50 in series [4] of more than 50 µM.
`CC(Cc1ccc(Oc2cc(N3CCN(Cc4ccncc4)CC3)nc(N)n2)cc1)(Oc1ccccc1)C(=O)O` (centres unmarked) [Compound 40, 3-{4-[2-Amino-6-(4-pyridin-4-ylmethyl-piperazin-1-yl)-pyrimidin-4-yloxy]-phenyl}-2-methyl-2-phenoxy-propionic acid] registered a melting point of 137 to 138 °C. For the same compound, in series [1], the IC50 was 46.5 µM. Further, in series [2], the IC50 was found to be 45.2 µM. The compound further yielded an IC50 in series [3] of more than 50 µM. Moreover, in series [4], the IC50 was more than 50 µM.
On to `CC(Cc1ccc(Oc2cc(N3CCN(Cc4ccccc4)CC3)nc(N3CCCCC3)n2)cc1)(Oc1ccccc1)C(=O)O` (centres unmarked) [Compound 52, 3-{4-[6-(4-Benzyl-piperazin-1-yl)-2-piperidin-1-yl-pyrimidin-4-yloxy]-phenyl}-2-methyl-2-phenoxy-propionic acid], for which the melting point is 125 to 126 °C. In series [1], the IC50 came out at 7.8 µM. In series [2], it took 17.6 µM to reach half-maximal inhibition (IC50). The compound also displayed an EC50 in series [5] of 4.68 µM. This compound displayed an IC50 in series [3] of 12.4 µM. The IC50 in series [4] came out at 17.9 µM.
`CC(Cc1ccc(Oc2cc(N3CCN(CC(=O)c4ccccc4)CC3)nc(N)n2)cc1)(Oc1ccccc1)C(=O)O` (centres unmarked) [Compound 18, 3-{4-{2-Amino-6-[4-(2-oxo-2-phenyl-ethyl)-piperazin-1-yl]-pyrimidin-4-yloxy}-phenyl}-2-methyl-2-phenoxy-propionic acid] displayed a melting point of 107 to 108 °C. This compound also displayed an IC50 in series [1] of more than 50 µM. The compound also gave an IC50 in series [2] of more than 50 µM. This compound showed an EC50 in series [5] of 6.46 µM. In addition, in series [3], the IC50 is more than 50 µM. The IC50 in series [4] is more than 50 µM.
`CC(Cc1ccc(Oc2cc(N3CCN(Cc4cccc(Cl)c4)CC3)nc(N)n2)cc1)(Oc1ccccc1)C(=O)O` (centres unmarked) [Compound 11, 3-{4-{2-Amino-6-[4-(3-chloro-benzyl)-piperazin-1-yl]-pyrimidin-4-yloxy}-phenyl}-2-methyl-2-phenoxy-propionic acid]: the melting point was in the range of 87 to 89 °C. In series [1], this compound displayed an IC50 of 47.6 µM. In series [2], this compound showed an IC50 of 40.6 µM. The midpoint of the response in series [5], the EC50, lay at 5.13 µM. In series [3], this compound showed an IC50 of more than 50 µM. This compound registered an IC50 in series [4] of more than 50 µM.
For the compound `CCNc1nc(Oc2ccc(CC(C)(Oc3ccccc3)C(=O)O)cc2)cc(N2CCN(Cc3ccccc3)CC2)n1` (centres unmarked) [Compound 50, 3-{4-[6-(4-Benzyl-piperazin-1-yl)-2-ethylamino-pyrimidin-4-yloxy]-phenyl}-2-methyl-2-phenoxy-propionic acid], the melting point lay within 106 to 107 °C. In addition, the IC50 in series [1] came out at 46.6 µM. This compound also had an IC50 in series [2] of 33.7 µM. This compound registered an EC50 in series [5] of 6.03 µM. The same compound came in with an IC50 in series [3] of more than 50 µM. This compound also registered an IC50 in series [4] of more than 50 µM.
In the case of `CCN(CC)c1nc(Oc2ccc(CC(C)(Oc3ccccc3)C(=O)O)cc2)cc(N2CCN(Cc3ccccc3)CC2)n1` (centres unmarked) [Compound 51, 3-{4-[6-(4-Benzyl-piperazin-1-yl)-2-diethylamino-pyrimidin-4-yloxy]-phenyl}-2-methyl-2-phenoxy-propionic acid], the melting point is 120 to 121 °C. In series [1], this compound came in with an IC50 of 36.6 µM. In series [2], the IC50 was 27.6 µM. Further, in series [5], the response was half-maximal at 7.08 µM (EC50). The same compound returned an IC50 in series [3] of 21.9 µM. Also, in series [4], 37.5 µM corresponded to half-maximal inhibition (IC50).
Compound `CC(Cc1ccc(Oc2cc(N3CCN(Cc4ccc([N+](=O)[O-])cc4)CC3)nc(N)n2)cc1)(Oc1ccccc1)C(=O)O` (centres unmarked) [Compound 38, 3-{4-{2-Amino-6-[4-(4-nitro-benzyl)-piperazin-1-yl]-pyrimidin-4-yloxy}-phenyl}-2-methyl-2-phenoxy-propionic acid] yielded a melting point of 160 to 162 °C. The IC50 in series [1] was more than 50 µM. In series [2], the IC50 was determined as 45.3 µM. The same compound returned an IC50 in series [3] of 40.3 µM. The same compound gave an IC50 in series [4] of more than 50 µM.
In turn, `CC(Cc1ccc(Oc2cc(N3CCN(c4ccccn4)CC3)nc(N)n2)cc1)(Oc1ccccc1)C(=O)O` (centres unmarked) [Compound 19, 3-{4-[2-Amino-6-(4-pyridin-2-yl-piperazin-1-yl)-pyrimidin-4-yloxy]-phenyl}-2-methyl-2-phenoxy-propionic acid] displayed a melting point of 110 to 111 °C. In addition, half-maximal inhibition in series [1] (IC50) required 42.5 µM. For the same compound, the IC50 in series [2] was more than 50 µM. The compound further returned an EC50 in series [5] of 6.31 µM. The compound further registered an IC50 in series [4] of 49.5 µM.

A word on the melting point: it is the temperature, or range, at which the solid turns liquid. Broadly, the IC50 is the concentration that inhibits the measured activity by half. Usually EC50 stands for the concentration at which the effect is half-maximal.
